Assay results from the supplement of paper PMC10883282.
± gives the standard deviation of the averaged measurements.

Test system: SW684
Experiment: relative viability vs DMSO control (72 h) (fraction); higher = more viable cells
Method in brief: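 Sarcoma cell lines went into 384-well plates at densities chosen to reach 80–90% confluence. After 24 h, each well received 2.5 µl of serially diluted compound, with source plates running from 10 mM to 0.0002 mM, and the plates were kept 72 h at 37 °C, 5% CO2, alongside 0.1% DMSO vehicle and a 5 µM positive control. Relative viability was derived from ATPLite readings as percent growth and averaged over up to triplicate wells. The data were then rescaled so that 1 stands for full and 0 for none.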

Row | Compound | relative viability (0.00017 µM) | relative viability (0.00051 µM) | relative viability (0.00152 µM) | relative viability (0.00457 µM) | relative viability (0.01372 µM) | relative viability (0.04115 µM) | relative viability (0.1235 µM) | relative viability (0.3704 µM) | relative viability (1.111 µM) | relative viability (3.333 µM) | relative viability (10 µM)
1 | Cc1cc(C)c(/C=C2\C(=O)Nc3ccccc32)[nH]1 [Semaxanib] | 0.981 ± 0.022 | 0.962 ± 0.03 | 0.994 ± 0.026 | 0.935 ± 0.018 | 0.917 ± 0.02 | 0.8931 ± 0.0076 | 0.901 ± 0.046 | 0.923 ± 0.029 | 0.932 ± 0.06 | 0.902 ± 0.072 | 0.812 ± 0.017
2 | O=C(Nc1cnn2ccc(N3CCC[C@@H]3c3cc(F)ccc3F)nc12)N1CC[C@H](O)C1 [Larotrectinib] | 1.13 ± 0.057 | 1.19 ± 0.071 | 1.19 ± 0.044 | 1.16 ± 0.025 | 1.2 ± 0.073 | 1.15 ± 0.05 | 1.14 ± 0.043 | 1.17 ± 0.084 | 1.16 ± 0.021 | 1.09 ± 0.069 | 1.1 ± 0.04
3 | C=CC(=O)N1CCC[C@@H](n2nc(-c3ccc(Oc4ccccc4)cc3)c3c(N)ncnc32)C1 [Ibrutinib] | 1.18 ± 0.037 | 1.22 ± 0.063 | 1.2 ± 0.016 | 1.22 ± 0.026 | 1.17 ± 0.054 | 1.24 ± 0.054 | 1.15 ± 0.12 | 1.24 ± 0.061 | 1.26 ± 0.078 | 1.3 ± 0.071 | 1.06 ± 0.031
4 | CC(C)N1CCN(Cc2cnc(-c3cc(-c4cccc5[nH]ccc45)cc4[nH]ncc34)o2)CC1 [Nemiralisib] | 1 ± 0.084 | 0.911 ± 0.069 | 0.851 ± 0.033 | 0.804 ± 0.014 | 0.721 ± 0.019 | 0.68 ± 0.051 | 0.695 ± 0.011 | 0.618 ± 0.03 | 0.541 ± 0.035 | 0.548 ± 0.027 | 0.444 ± 0.043
5 | CN1CCN(c2ccc3nc(-c4c(N)c5c(F)cccc5[nH]c4=O)[nH]c3c2)CC1 [Dovitinib] | 1.12 ± 0.039 | 1.17 ± 0.013 | 1.17 ± 0.033 | 1.15 ± 0.037 | 1.18 ± 0.028 | 1.15 ± 0.038 | 1.11 ± 0.037 | 1.138 ± 0.01 | 0.977 ± 0.034 | 0.656 ± 0.019 | 0.294 ± 0.038
6 | COc1c(OCCCN2CCOCC2)ccc2c1N=C(NC(=O)c1cnc(N)nc1)N1CCN=C21 [Copanlisib] | 1.09 ± 0.061 | 1.12 ± 0.062 | 1 ± 0.026 | 0.7483 ± 0.0065 | 0.631 ± 0.025 | 0.516 ± 0.018 | 0.469 ± 0.011 | 0.435 ± 0.018 | 0.425 ± 0.017 | 0.403 ± 0.0053 | 0.368 ± 0.002
7 | CNC(=O)c1ccc(-c2cnc3ncc(Cc4ccc5ncccc5c4)n3n2)cc1F [Capmatinib] | 1.19 ± 0.017 | 1.2 ± 0.043 | 1.19 ± 0.047 | 1.15 ± 0.056 | 1.12 ± 0.046 | 1.127 ± 0.0092 | 1.13 ± 0.029 | 1.14 ± 0.085 | 1.17 ± 0.06 | 1.13 ± 0.052 | 1.05 ± 0.045
8 | Cn1cc(-c2cc3c(N4CCN(c5ncc([C@@](C)(N)c6ccc(F)cc6)cn5)CC4)ncnn3c2)cn1 [Avapritinib] | 1.058 ± 0.0041 | 1.04 ± 0.013 | 1.07 ± 0.036 | 1.05 ± 0.031 | 1.05 ± 0.035 | 1.01 ± 0.017 | 1.09 ± 0.064 | 1.06 ± 0.034 | 1.02 ± 0.021 | 1.03 ± 0.03 | 0.95 ± 0.038
9 | CCCS(=O)(=O)Nc1ccc(F)c(C(=O)c2c[nH]c3ncc(-c4ccc(Cl)cc4)cc23)c1F [Vemurafenib] | 1.18 ± 0.038 | 1.26 ± 0.02 | 1.18 ± 0.073 | 1.21 ± 0.054 | 1.205 ± 0.0029 | 1.18 ± 0.032 | 1.207 ± 0.0074 | 1.21 ± 0.034 | 1.21 ± 0.035 | 1.04 ± 0.033 | 0.804 ± 0.17
